Here are results for six molecules from ChEMBL document CHEMBL1201862, “PubChem BioAssay data set” (2004).

Assay [1] has as its target Cytochrome P450 2C19 (Homo sapiens, UniProt P33261). Briefly: qHTS Assay for Inhibitors and Substrates of Cytochrome P450 2C19. [Related pubchem assays: 410 ]. The note with it: read-out: Potency. Type of assay: ADME. Background: qHTS replaces the single test concentration by a dilution series.
For assay [2], the target named is Cytochrome P450 2D6 (Homo sapiens, UniProt P10635). Kind of assay: qHTS Assay for Inhibitors and Substrates of Cytochrome P450 2D6. [Related pubchem assays: 410 ]. Type of assay: ADME. The following applies: read-out: Potency.
Chain of Cytochrome P450 2D6 (P10635 whole entry): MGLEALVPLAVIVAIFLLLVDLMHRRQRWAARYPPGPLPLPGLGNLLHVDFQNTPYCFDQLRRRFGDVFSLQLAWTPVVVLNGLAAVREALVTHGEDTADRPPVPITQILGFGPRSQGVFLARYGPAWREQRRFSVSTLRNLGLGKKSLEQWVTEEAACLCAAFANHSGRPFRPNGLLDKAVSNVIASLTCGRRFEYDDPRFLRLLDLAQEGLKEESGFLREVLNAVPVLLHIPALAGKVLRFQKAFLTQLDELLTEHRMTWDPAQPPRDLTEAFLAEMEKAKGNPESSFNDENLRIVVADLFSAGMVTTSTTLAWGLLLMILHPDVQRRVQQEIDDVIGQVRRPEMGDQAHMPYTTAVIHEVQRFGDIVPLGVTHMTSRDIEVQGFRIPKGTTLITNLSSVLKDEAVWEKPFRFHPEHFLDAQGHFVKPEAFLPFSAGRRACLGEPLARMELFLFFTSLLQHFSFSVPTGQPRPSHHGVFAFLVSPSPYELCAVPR
For assay [3], the target named is E3 ubiquitin-protein ligase Mdm2 (Homo sapiens, UniProt Q00987). Kind of assay: enhancers of MDM2-luciferase reporter signal, concentration-effect titration, project on inhibitors of MDM2 ubiquitin ligase, cellular assay, luminescent readout, 384-well plate format (AID 1394).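 Also: MDM2 E3 inhibitors raise luminescence so EC50 is for signal enhancement.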 The format is functional. In general terms: A reporter such as luciferase makes a cellular process visible.
Chain of E3 ubiquitin-protein ligase Mdm2 (Q00987 whole entry): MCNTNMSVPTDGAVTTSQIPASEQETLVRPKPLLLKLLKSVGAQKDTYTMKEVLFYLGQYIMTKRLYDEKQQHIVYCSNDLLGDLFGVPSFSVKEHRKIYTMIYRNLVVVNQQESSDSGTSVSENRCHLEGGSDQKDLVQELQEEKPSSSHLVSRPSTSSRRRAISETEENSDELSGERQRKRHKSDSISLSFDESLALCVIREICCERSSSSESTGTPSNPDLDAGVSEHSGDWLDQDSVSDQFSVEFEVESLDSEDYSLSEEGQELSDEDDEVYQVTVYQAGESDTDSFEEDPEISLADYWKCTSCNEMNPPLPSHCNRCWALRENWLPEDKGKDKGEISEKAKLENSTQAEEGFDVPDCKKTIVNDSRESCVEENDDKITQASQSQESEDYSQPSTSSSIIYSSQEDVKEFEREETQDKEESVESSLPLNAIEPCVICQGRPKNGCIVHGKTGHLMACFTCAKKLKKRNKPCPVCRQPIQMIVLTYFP

The target in assay [4] is Genome polyprotein (Hepatitis C virus, UniProt Q2Q167). Briefly: HCV core protein dimerization inhibitors, dose response, biochemical, TR-FRET (AID 2159).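 Also: blocks dimerization of HCV core protein measured by TR-FRET between tagged core106 pairs.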 Further details: species or system Hepacivirus hominis. (In general: TR-FRET usually uses a lanthanide donor and a delayed reading to cut background.)
Chain of Genome polyprotein (Q2Q167 whole entry): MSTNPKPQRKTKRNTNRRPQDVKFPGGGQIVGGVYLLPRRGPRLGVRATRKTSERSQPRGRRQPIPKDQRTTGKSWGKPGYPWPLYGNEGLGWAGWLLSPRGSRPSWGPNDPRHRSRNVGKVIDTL
In assay [5] the target is T1, Estrogen receptor (Homo sapiens, UniProt P03372).
T1 sequence (P03372 whole entry): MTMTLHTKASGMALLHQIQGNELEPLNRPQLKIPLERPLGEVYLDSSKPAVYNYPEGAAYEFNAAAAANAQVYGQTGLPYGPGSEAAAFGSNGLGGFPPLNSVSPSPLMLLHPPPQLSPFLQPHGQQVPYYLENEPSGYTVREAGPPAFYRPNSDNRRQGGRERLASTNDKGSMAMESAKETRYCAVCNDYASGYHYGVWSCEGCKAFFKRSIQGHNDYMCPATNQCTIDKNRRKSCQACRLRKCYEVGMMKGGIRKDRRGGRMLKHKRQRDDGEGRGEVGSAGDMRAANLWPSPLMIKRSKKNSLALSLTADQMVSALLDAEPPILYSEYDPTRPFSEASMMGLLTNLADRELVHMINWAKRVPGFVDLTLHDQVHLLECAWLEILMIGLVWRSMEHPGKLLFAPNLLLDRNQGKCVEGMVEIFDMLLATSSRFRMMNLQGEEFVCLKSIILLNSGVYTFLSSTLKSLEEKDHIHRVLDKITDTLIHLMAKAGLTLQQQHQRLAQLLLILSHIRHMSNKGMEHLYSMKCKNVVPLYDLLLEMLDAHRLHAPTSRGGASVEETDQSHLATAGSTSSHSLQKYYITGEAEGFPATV
Kind of assay: potentiators of ERα–SRC-1 coactivator binding, dose response, biochemical, TR-FRET, ERα LBD (AID 737).

Assay [6] addresses T2, Protein skinhead-1 (Caenorhabditis elegans, UniProt P34707).
T2 sequence (P34707 whole entry): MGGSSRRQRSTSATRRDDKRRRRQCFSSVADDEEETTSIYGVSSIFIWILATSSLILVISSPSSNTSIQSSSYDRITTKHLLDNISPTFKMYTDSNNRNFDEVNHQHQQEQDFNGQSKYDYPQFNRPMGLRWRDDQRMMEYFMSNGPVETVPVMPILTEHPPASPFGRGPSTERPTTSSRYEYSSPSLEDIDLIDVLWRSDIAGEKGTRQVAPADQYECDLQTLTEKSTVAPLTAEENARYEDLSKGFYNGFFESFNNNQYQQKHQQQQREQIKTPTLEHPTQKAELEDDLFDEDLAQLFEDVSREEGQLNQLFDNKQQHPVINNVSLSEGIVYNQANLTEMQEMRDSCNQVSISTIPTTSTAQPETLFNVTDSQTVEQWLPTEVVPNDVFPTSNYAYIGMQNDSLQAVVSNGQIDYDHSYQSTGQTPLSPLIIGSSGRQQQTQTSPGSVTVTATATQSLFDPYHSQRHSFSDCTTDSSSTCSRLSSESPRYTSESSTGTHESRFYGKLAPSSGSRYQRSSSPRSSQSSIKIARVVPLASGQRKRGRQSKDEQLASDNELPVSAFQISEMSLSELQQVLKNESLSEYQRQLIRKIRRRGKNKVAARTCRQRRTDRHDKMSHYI
Type of assay: functional.

Assay [7] is described as follows: LGR2 antagonists, dose response, cell-based, HEK293, CRE-luciferase reporter, cherry pick, set 2 (AID 743343).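 Also: transfected cells were stimulated with diluted bursicon conditioned medium after compound addition.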 The format is functional.
The nature of assay [8]: MC4R antagonists, dose response, counter-screen for LGR2 antagonist project, cell-based, plate reader, cherry pick (AID 743444).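 Also: transfected HEK 293 cells stimulated with alpha-MSH peptide; potency of inhibitors of the alpha-MSH evoked signal.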 Type of assay: functional.
The target in assay [9] is Bifunctional protein GlmU (Mycobacterium tuberculosis, UniProt P9WMN3). Kind of assay: Inhibitors of Mycobacterial Glucosamine-1-phosphate acetyl transferase (GlmU). Secondary screen. Set-up: species or system Mycobacterium tuberculosis H37Rv.
Chain of Bifunctional protein GlmU (P9WMN3 whole entry): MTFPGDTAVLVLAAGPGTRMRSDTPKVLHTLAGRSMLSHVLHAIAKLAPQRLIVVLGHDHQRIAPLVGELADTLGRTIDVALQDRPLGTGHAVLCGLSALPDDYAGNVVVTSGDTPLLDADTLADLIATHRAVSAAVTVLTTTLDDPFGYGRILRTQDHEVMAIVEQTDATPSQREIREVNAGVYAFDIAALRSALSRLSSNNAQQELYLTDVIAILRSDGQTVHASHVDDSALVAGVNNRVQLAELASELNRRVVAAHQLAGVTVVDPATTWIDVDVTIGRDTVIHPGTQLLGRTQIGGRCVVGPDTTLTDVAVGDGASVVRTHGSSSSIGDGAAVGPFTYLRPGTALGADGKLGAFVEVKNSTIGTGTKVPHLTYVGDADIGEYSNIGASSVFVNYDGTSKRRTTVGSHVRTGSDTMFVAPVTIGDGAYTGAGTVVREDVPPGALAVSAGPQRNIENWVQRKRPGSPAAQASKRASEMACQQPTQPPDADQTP
Assay [10] concerns the target T3, Long-chain-fatty-acid--AMP ligase FadD28 (Mycobacterium tuberculosis, UniProt P9WQ59).
T3 sequence (P9WQ59 whole entry): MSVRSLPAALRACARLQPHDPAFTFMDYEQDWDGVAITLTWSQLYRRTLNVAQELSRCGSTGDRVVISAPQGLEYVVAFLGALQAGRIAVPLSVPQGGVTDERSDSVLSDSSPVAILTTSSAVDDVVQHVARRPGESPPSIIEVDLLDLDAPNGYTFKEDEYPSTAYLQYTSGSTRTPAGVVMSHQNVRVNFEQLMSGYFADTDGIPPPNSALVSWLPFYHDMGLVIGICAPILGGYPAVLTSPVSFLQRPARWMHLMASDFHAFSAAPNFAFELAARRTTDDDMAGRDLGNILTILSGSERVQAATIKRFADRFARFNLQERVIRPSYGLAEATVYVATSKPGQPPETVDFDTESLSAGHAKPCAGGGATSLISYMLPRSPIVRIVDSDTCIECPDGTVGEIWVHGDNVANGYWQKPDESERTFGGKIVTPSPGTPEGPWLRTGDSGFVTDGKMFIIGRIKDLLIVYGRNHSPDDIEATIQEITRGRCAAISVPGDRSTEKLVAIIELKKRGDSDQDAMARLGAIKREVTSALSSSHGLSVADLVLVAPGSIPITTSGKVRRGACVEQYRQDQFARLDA
Briefly: Fluorescence polarization aasay to screen for inhibitors that compete for the binding of FadD28 to a bisubstrate Measured in Biochemical System Using Plate Reader - 2147-01_Inhibitor_Dose_CherryPick_Activity. The format is functional, Mycobacterium tuberculosis H37Rv.

“And” between values parts separate entries of the source, which are not always exact repeats. Equal values may be shown once. The source made the active and inactive calls. A value given as a limit tells only on which side of the number the result lay.

Chain of Cytochrome P450 2C19 (P33261 whole entry): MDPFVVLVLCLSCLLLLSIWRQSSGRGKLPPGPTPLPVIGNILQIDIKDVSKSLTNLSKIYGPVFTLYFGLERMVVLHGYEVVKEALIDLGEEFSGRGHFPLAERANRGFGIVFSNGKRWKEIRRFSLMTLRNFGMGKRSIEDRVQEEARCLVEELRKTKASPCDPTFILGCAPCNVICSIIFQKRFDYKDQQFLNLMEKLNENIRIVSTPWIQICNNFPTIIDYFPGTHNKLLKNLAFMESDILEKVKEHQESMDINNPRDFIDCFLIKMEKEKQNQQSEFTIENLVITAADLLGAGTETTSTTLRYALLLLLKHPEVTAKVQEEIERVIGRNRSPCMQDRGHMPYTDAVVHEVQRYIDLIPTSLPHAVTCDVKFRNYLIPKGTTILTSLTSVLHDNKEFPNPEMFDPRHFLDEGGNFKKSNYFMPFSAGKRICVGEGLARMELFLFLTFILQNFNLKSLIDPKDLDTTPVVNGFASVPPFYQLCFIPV

On to `CCCCC1CN2C(CCC(C)C2c2ccc(Br)cc2)C(=O)O1` (configuration not stated), for which the AC50 is 3.16 µM (inconclusive) and 7.94 µM (inconclusive) in assay [1]; 3.16 µM (inconclusive) in assay [2] (human); 3.16 µM (inconclusive) in assay [2].

As to `CCOC(=O)C1C(c2ccccc2)N(C)OC1(O)C(F)(F)F` (configuration not stated), the EC50 – broadly, the concentration giving half of the maximal effect – in assay [3] is 9.58 µM (not active).

Regarding `CC1C=CCCOC1c1ccccc1` (configuration not stated), in assay [1], the AC50 was 3.98 µM (inconclusive).

In the case of `COc1ccc(-n2c(-c3ccc(Br)cc3)nc(=S)c3c2CCCC3)cc1`, in [4], the IC50 (usually the point on the concentration scale where inhibition reaches its midpoint) was > 49.8 µM (not active).

As to `O=C(Nc1cccnc1)c1cc(-c2ccc3c(c2)OCO3)on1`, in assay [5], the EC50 is 12.9 µM (not active). The IC50 in [6] was > 100 µM (inactive). Further, the AC50 in assay [7] was 5.5 µM (active); in [8], 5.56 µM (active).

In the case of `Cc1cc(N)n(-c2ccc(Oc3ccccc3)c(S(=O)(=O)O)c2)n1`, in assay [9], the IC50 was 123 µM (active). The AC50 in assay [10] is > 100 µM (inactive).
